Tests used:
[1] = Inhibition of Mycobacterium tuberculosis shikimate dehydrogenase using shikimic acid as substrate in presence of NADP+ by spectrophotometric analysis
[2] = test system: Mycobacterium tuberculosis; test: Antibacterial activity against Mycobacterium tuberculosis H37Rv ATCC 25618 after 8 to 9 days by BacT/Alert MP bottle assay; assay type: functional
[3] = Cytotoxicity against African green monkey Vero cells assessed as reduction in cell viability by Alamar blue assay; assay type: toxicity, cell-based; conditions: African green monkey (Chlorocebus sabaeus)
[4] = Cytotoxicity against human HepG2 cells assessed as reduction in cell viability by Alamar blue assay; assay type: toxicity, cell-based
[5] = Selectivity index, ratio of IC50 for African green monkey Vero cells to MIC for Mycobacterium tuberculosis H37Rv ATCC 25618; assay type: toxicity, cell-based; conditions: read-out: Selectivity Index
[6] = Selectivity index, ratio of IC50 for human HepG2 cells to MIC for Mycobacterium tuberculosis H37Rv ATCC 25618; assay type: toxicity, cell-based; conditions: read-out: Selectivity Index

Compound | MIC [2] | further results
COc1ccc(C2=Nn3c(nnc3-c3ccncc3)SC2)cc1 | – | IC50 [1]: 20.99 µg/mL
c1ccc(C2=Nn3c(nnc3-c3ccncc3)SC2)cc1 | 8 µg/mL | –
Fc1ccc(C2=Nn3c(Cc4ccc5ccccc5c4)nnc3SC2)cc1 | > 8 µg/mL | –
COc1ccc(C2=Nn3c(nnc3-c3ccc(Cl)cc3)SC2)cc1 | > 8 µg/mL | –
COc1ccc(C2=Nn3c(nnc3-c3ccc(Br)cc3)SC2)cc1 | 8 µg/mL | –
O=[N+]([O-])c1ccc(C2=Nn3c(nnc3-c3ccc(Br)cc3)SC2)cc1 | 0.6 µM | IC50 [1]: 86.39 µg/mL; IC50 [3]: 13.9 µM; IC50 [4]: 10.4 µM; selectivity ratio [5]: 23.2; selectivity ratio [6]: 17.3
COc1ccc(C2=Nn3c(Cc4ccc5ccccc5c4)nnc3SC2)cc1 | > 8 µg/mL | –
c1ccc(C2=Nn3c(nnc3-c3ccccc3)SC2)cc1 | – | IC50 [1]: 28.38 µg/mL
Fc1ccc(C2=Nn3c(nnc3-c3ccc(Cl)cc3)SC2)cc1 | > 8 µg/mL | –
O=[N+]([O-])c1ccc(C2=Nn3c(Cc4ccc5ccccc5c4)nnc3SC2)cc1 | 9.95 µM | IC50 [1]: 11.68 µg/mL; IC50 [3]: 69.7 µM; IC50 [4]: 72.6 µM; selectivity ratio [5]: 7.01; selectivity ratio [6]: 7.29
O=[N+]([O-])c1ccc(C2=Nn3c(nnc3-c3ccncc3F)SC2)cc1 | 2.8 µM | IC50 [1]: 73.57 µg/mL; IC50 [3]: 355 µM; IC50 [4]: 166 µM; selectivity ratio [5]: 127; selectivity ratio [6]: 59.2
O=[N+]([O-])c1ccc(C2=Nn3c(nnc3-c3ccc(Cl)cc3)SC2)cc1 | 8 µg/mL | –
Fc1ccc(C2=Nn3c(nnc3-c3ccc(Br)cc3)SC2)cc1 | > 8 µg/mL | –
Fc1ccc(C2=Nn3c(nnc3-c3ccncc3F)SC2)cc1 | > 8 µg/mL | –
COc1ccc(-c2nnc3n2N=C(c2ccc(F)cc2)CS3)cc1 | > 8 µg/mL | –
Fc1cnccc1-c1nnc2n1N=C(c1ccccc1)CS2 | > 8 µg/mL | –

Compound | MIC [2] | further results
COc1ccc(C2=Nn3c(nnc3-c3ccccc3)SC2)cc1 | > 8 µg/mL | –
c1ccc(C2=Nn3c(Cc4ccc5ccccc5c4)nnc3SC2)cc1 | > 8 µg/mL | –
Fc1ccc(-c2nnc3sc(COc4ccccc4)nn23)cc1 | 24.5 µM | IC50 [1]: 23 µg/mL; IC50 [3]: 71 µM; IC50 [4]: 46.6 µM; selectivity ratio [5]: 2.9; selectivity ratio [6]: 1.9
Fc1ccc(C2=Nn3c(nnc3-c3ccccc3)SC2)cc1 | > 8 µg/mL | –
Clc1ccc(-c2nnc3sc(COc4ccc(Br)cc4)nn23)cc1 | 0.5 µg/mL | –
Clc1ccc(-c2nnc3n2N=C(c2ccccc2)CS3)cc1 | > 8 µg/mL | –
COc1ccc(C2=Nn3c(nnc3-c3ccncc3F)SC2)cc1 | 8 µg/mL | –
Brc1ccc(OCc2nn3c(-c4ccc(Br)cc4)nnc3s2)cc1 | 0.5 µg/mL | –
COc1ccc(-c2nnc3n2N=C(c2ccc([N+](=O)[O-])cc2)CS3)cc1 | > 8 µg/mL | –
COc1ccc(-c2nnc3n2N=C(c2ccccc2)CS3)cc1 | > 8 µg/mL | –
Fc1ccc(C2=Nn3c(nnc3-c3ccncc3)SC2)cc1 | > 8 µg/mL | –
Brc1ccc(-c2nnc3n2N=C(c2ccccc2)CS3)cc1 | 0.67 µM | IC50 [1]: 252.5 µg/mL; IC50 [3]: 58.5 µM; IC50 [4]: 235 µM; selectivity ratio [5]: 87.3; selectivity ratio [6]: 350
O=[N+]([O-])c1ccc(C2=Nn3c(nnc3-c3ccccc3)SC2)cc1 | > 8 µg/mL | –
COc1ccc(C2=Nn3c(nnc3-c3ccc(OC)cc3)SC2)cc1 | > 8 µg/mL | –
NNC(=O)c1ccncc1 [ISONIAZID] | 0.12 µg/mL | –
CO[C@H]1/C=C/O[C@@]2(C)Oc3c(C)c(O)c4c(O)c(c(/C=N/N5CCN(C)CC5)c(O)c4c3C2=O)NC(=O)/C(C)=C\C=C\[C@H](C)[C@H](O)[C@@H](C)[C@@H](O)[C@@H](C)[C@H](OC(C)=O)[C@@H]1C [RIFAMPIN] | 0.25 µg/mL | –

From ChEMBL document CHEMBL3875182 (Bioorg Med Chem, 2017)
